{
  "source": "ChEMBL document CHEMBL3044902",
  "about": "“Effect of Optically Active Ethyl 2-Phthalimidooxypropionate on the Growth of Cress, Lepidium sativum” (1999)",
  "assay_type_in_all_cases": "functional",
  "key": {"Lepidium sativum [1]": {"tested_on": "Lepidium sativum", "experiment": "Inhibition of root growth of Lepidium sativum at 1 ppm relative to untreated control", "conditions": "read-out: GI"}, "Lepidium sativum [2]": {"tested_on": "Lepidium sativum", "experiment": "Inhibition of germination of Lepidium sativum at 10 ppm relative to untreated control"}, "Lepidium sativum [3]": {"tested_on": "Lepidium sativum", "experiment": "Inhibition of germination of Lepidium sativum at 100 ppm relative to untreated control"}, "Lepidium sativum [4]": {"tested_on": "Lepidium sativum", "experiment": "Inhibition of root growth of Lepidium sativum at 100 ppm relative to untreated control", "conditions": "read-out: GI"}, "Lepidium sativum [5]": {"tested_on": "Lepidium sativum", "experiment": "Inhibition of root growth of Lepidium sativum at 0.38 microM relative to untreated control", "conditions": "read-out: GI"}, "Lepidium sativum [6]": {"tested_on": "Lepidium sativum", "experiment": "Inhibition of root growth of Lepidium sativum at 1.1 microM relative to untreated control", "conditions": "read-out: GI"}, "Lepidium sativum [7]": {"tested_on": "Lepidium sativum", "experiment": "Inhibition of root growth of Lepidium sativum at 3.8 microM relative to untreated control", "conditions": "read-out: GI"}},
  "data": [
    {"smiles": "CCOC(=O)CON1C(=O)c2ccccc2C1=O", "values": [
      {"measurement": "inhibition of growth at 1 ppm", "setting": "Lepidium sativum [1]", "result": 0, "unit": "%"},
      {"measurement": "inhibition at 10 ppm", "setting": "Lepidium sativum [2]", "result": 0, "unit": "%"},
      {"measurement": "inhibition at 100 ppm", "setting": "Lepidium sativum [3]", "result": 100, "unit": "%"},
      {"measurement": "inhibition of growth at 100 ppm", "setting": "Lepidium sativum [4]", "result": 100, "unit": "%"}
    ]},
    {"smiles": "CCOC(=O)[C@@H](C)ON1C(=O)c2ccccc2C1=O", "values": [
      {"measurement": "inhibition of growth at 0.38 µM", "setting": "Lepidium sativum [5]", "result": 0, "unit": "%"},
      {"measurement": "inhibition of growth at 1.1 µM", "setting": "Lepidium sativum [6]", "result": 5, "unit": "%"},
      {"measurement": "inhibition of growth at 3.8 µM", "setting": "Lepidium sativum [7]", "result": 14, "unit": "%"}
    ]},
    {"smiles": "CCCCCOC(=O)C(C)ON1C(=O)c2ccccc2C1=O", "note": "(configuration not stated)", "values": [
      {"measurement": "inhibition of growth at 1 ppm", "setting": "Lepidium sativum [1]", "result": 64, "unit": "%"}
    ]},
    {"smiles": "CCOC(=O)C(C)ON1C(=O)c2ccccc2C1=O", "note": "(configuration not stated)", "values": [
      {"measurement": "inhibition of growth at 1 ppm", "setting": "Lepidium sativum [1]", "result": 68, "unit": "%"},
      {"measurement": "inhibition at 10 ppm", "setting": "Lepidium sativum [2]", "result": 0, "unit": "%"},
      {"measurement": "inhibition at 100 ppm", "setting": "Lepidium sativum [3]", "result": 100, "unit": "%"},
      {"measurement": "inhibition of growth at 100 ppm", "setting": "Lepidium sativum [4]", "result": 100, "unit": "%"}
    ]},
    {"smiles": "CCOC(=O)[C@H](C)ON1C(=O)c2ccccc2C1=O", "values": [
      {"measurement": "inhibition of growth at 0.38 µM", "setting": "Lepidium sativum [5]", "result": 35, "unit": "%"},
      {"measurement": "inhibition of growth at 1.1 µM", "setting": "Lepidium sativum [6]", "result": 49, "unit": "%"},
      {"measurement": "inhibition of growth at 3.8 µM", "setting": "Lepidium sativum [7]", "result": 72, "unit": "%"}
    ]},
    {"smiles": "CC(ON1C(=O)c2ccccc2C1=O)C(=O)OC(C)(C)C", "note": "(configuration not stated)", "values": [
      {"measurement": "inhibition of growth at 1 ppm", "setting": "Lepidium sativum [1]", "result": 1, "unit": "%"}
    ]},
    {"smiles": "CCC(C)OC(=O)C(C)ON1C(=O)c2ccccc2C1=O", "note": "(configuration not stated)", "values": [
      {"measurement": "inhibition of growth at 1 ppm", "setting": "Lepidium sativum [1]", "result": 42, "unit": "%"}
    ]},
    {"smiles": "CCCOC(=O)C(C)ON1C(=O)c2ccccc2C1=O", "note": "(configuration not stated)", "values": [
      {"measurement": "inhibition of growth at 1 ppm", "setting": "Lepidium sativum [1]", "result": 64, "unit": "%"}
    ]},
    {"smiles": "CC(C)OC(=O)C(C)ON1C(=O)c2ccccc2C1=O", "note": "(configuration not stated)", "values": [
      {"measurement": "inhibition of growth at 1 ppm", "setting": "Lepidium sativum [1]", "result": 51, "unit": "%"}
    ]},
    {"smiles": "CCCCOC(=O)C(C)ON1C(=O)c2ccccc2C1=O", "note": "(configuration not stated)", "values": [
      {"measurement": "inhibition of growth at 1 ppm", "setting": "Lepidium sativum [1]", "result": 59, "unit": "%"}
    ]},
    {"smiles": "CCOC(=O)C(Cc1ccccc1)ON1C(=O)c2ccccc2C1=O", "note": "(configuration not stated)", "values": [
      {"measurement": "inhibition of growth at 1 ppm", "setting": "Lepidium sativum [1]", "result": 0, "unit": "%"},
      {"measurement": "inhibition at 100 ppm", "setting": "Lepidium sativum [3]", "result": 0, "unit": "%"},
      {"measurement": "inhibition of growth at 100 ppm", "setting": "Lepidium sativum [4]", "result": 70, "unit": "%"}
    ]},
    {"smiles": "CCCC(C)ON1C(=O)c2ccccc2C1=O", "note": "(configuration not stated)", "values": [
      {"measurement": "inhibition of growth at 1 ppm", "setting": "Lepidium sativum [1]", "result": 0, "unit": "%"},
      {"measurement": "inhibition at 100 ppm", "setting": "Lepidium sativum [3]", "result": 0, "unit": "%"},
      {"measurement": "inhibition of growth at 100 ppm", "setting": "Lepidium sativum [4]", "result": 56, "unit": "%"}
    ]},
    {"smiles": "CCOC(=O)C(C)CN1C(=O)c2ccccc2C1=O", "note": "(configuration not stated)", "values": [
      {"measurement": "inhibition of growth at 1 ppm", "setting": "Lepidium sativum [1]", "result": 0, "unit": "%"},
      {"measurement": "inhibition at 100 ppm", "setting": "Lepidium sativum [3]", "result": 0, "unit": "%"},
      {"measurement": "inhibition of growth at 100 ppm", "setting": "Lepidium sativum [4]", "result": 41, "unit": "%"}
    ]},
    {"smiles": "COC(=O)C(C)ON1C(=O)c2ccccc2C1=O", "note": "(configuration not stated)", "values": [
      {"measurement": "inhibition of growth at 1 ppm", "setting": "Lepidium sativum [1]", "result": 64, "unit": "%"}
    ]},
    {"smiles": "CCCCCCC(ON1C(=O)c2ccccc2C1=O)C(=O)OCC", "note": "(configuration not stated)", "values": [
      {"measurement": "inhibition of growth at 1 ppm", "setting": "Lepidium sativum [1]", "result": 0, "unit": "%"},
      {"measurement": "inhibition at 100 ppm", "setting": "Lepidium sativum [3]", "result": 0, "unit": "%"},
      {"measurement": "inhibition of growth at 100 ppm", "setting": "Lepidium sativum [4]", "result": 72, "unit": "%"}
    ]},
    {"smiles": "CCOC(=O)C(ON1C(=O)c2ccccc2C1=O)c1ccccc1", "note": "(configuration not stated)", "values": [
      {"measurement": "inhibition of growth at 1 ppm", "setting": "Lepidium sativum [1]", "result": 0, "unit": "%"},
      {"measurement": "inhibition at 100 ppm", "setting": "Lepidium sativum [3]", "result": 0, "unit": "%"},
      {"measurement": "inhibition of growth at 100 ppm", "setting": "Lepidium sativum [4]", "result": 60, "unit": "%"}
    ]},
    {"smiles": "CCOC(=O)C(C)(C)ON1C(=O)c2ccccc2C1=O", "values": [
      {"measurement": "inhibition of growth at 1 ppm", "setting": "Lepidium sativum [1]", "result": 0, "unit": "%"},
      {"measurement": "inhibition at 10 ppm", "setting": "Lepidium sativum [2]", "result": 0, "unit": "%"},
      {"measurement": "inhibition at 100 ppm", "setting": "Lepidium sativum [3]", "result": 60, "unit": "%"},
      {"measurement": "inhibition of growth at 100 ppm", "setting": "Lepidium sativum [4]", "result": 95, "unit": "%"}
    ]},
    {"smiles": "CCOC(=O)C(CC)ON1C(=O)c2ccccc2C1=O", "note": "(configuration not stated)", "values": [
      {"measurement": "inhibition of growth at 1 ppm", "setting": "Lepidium sativum [1]", "result": 0, "unit": "%"},
      {"measurement": "inhibition at 10 ppm", "setting": "Lepidium sativum [2]", "result": 0, "unit": "%"},
      {"measurement": "inhibition at 100 ppm", "setting": "Lepidium sativum [3]", "result": 80, "unit": "%"},
      {"measurement": "inhibition of growth at 100 ppm", "setting": "Lepidium sativum [4]", "result": 94, "unit": "%"}
    ]},
    {"smiles": "CCOC(=O)C(C)ON1C(=O)c2ccccc2C1=O", "note": "(racemic)", "values": [
      {"measurement": "inhibition of growth at 0.38 µM", "setting": "Lepidium sativum [5]", "result": 14, "unit": "%"},
      {"measurement": "inhibition of growth at 1.1 µM", "setting": "Lepidium sativum [6]", "result": 33, "unit": "%"},
      {"measurement": "inhibition of growth at 3.8 µM", "setting": "Lepidium sativum [7]", "result": 68, "unit": "%"}
    ]}
  ]
}
